Where a chain is given by its changes, count along the chain named. Numbers in names are those of the source. Entries after “also recorded” stand apart in the source; their conditions may differ.
Legend:
h-sgk expression = assay: Transcriptional regulation of h-sgk (Northern blot); type: cell-based; conditions: FIG. 1; TGFβ1 effect shown after 0.5 to 6 h
Experimental: (§1) Cells were cultivated in RPMI/5% CO2/10 mM glucose at 37° C., pH 7.4, supplemented with 10% (vol/vol) fetal calf serum (FCS). The cells were grown to 90% confluence and then homogenized in TRIZOL (GIBCO/BRL) (about 0.4×10^6 per sample). Total RNA was prepared in accordance with the manufacturer's instructions. Northern blots were fractionated by electrophoresis through 10 g/l agarose gels with 15 or 20 μg of total RNA with separate control in the presence of 2.4 mol/l formaldehyde. RNA was transferred by vacuum (Appligene Oncor Trans DNA Express Vacuum Blotter, Appligine, Heidelberg, Germany) to positively charged nylon membranes (Boehringer Mannheim, Germany) and crosslinked under ultraviolet light (UV Stratalinker 2400, Stratagene, Heidelberg, Germany). Hybridization was carried out over night with DIG-Easy-Hyb (Boehringer Mannheim) at a probe concentration of 25 μg/l at 50° C. The digoxigenin (DIG)-labeled probes were produced by PCR as described in detail earlier (Waldegger et al. (1997) PNAS 94: 4440-4445). For the autoradiography, the filters were exposed to an X-ray film (Kodak) for an average of 5 min.

biglycan expression = assay: Transcriptional regulation of biglycan (Northern blot); type: cell-based; conditions: FIG. 2; for effect of TGFβ1 on biglycan expression in the presence of the NKCC inhibitor: TGFβ1-stimulated
Experimental: as §1

h-sgk = biological target: T1, h-sgk (Homo sapiens, UniProt O00141); assay: Two-electrode voltage clamp of ENaC current in oocytes coexpressing h-sgk; type: cell-based; conditions: for activation of ENaC (Na+ channel current) by h-sgk: oocytes coexpressing ENaC and h-sgk, treated with kinase inhibitor, FIG. 4
T1 construct: expressed in transfected cells; host or cells: Xenopus laevis oocytes (cRNA injection)
T1 sequence (O00141 1-431): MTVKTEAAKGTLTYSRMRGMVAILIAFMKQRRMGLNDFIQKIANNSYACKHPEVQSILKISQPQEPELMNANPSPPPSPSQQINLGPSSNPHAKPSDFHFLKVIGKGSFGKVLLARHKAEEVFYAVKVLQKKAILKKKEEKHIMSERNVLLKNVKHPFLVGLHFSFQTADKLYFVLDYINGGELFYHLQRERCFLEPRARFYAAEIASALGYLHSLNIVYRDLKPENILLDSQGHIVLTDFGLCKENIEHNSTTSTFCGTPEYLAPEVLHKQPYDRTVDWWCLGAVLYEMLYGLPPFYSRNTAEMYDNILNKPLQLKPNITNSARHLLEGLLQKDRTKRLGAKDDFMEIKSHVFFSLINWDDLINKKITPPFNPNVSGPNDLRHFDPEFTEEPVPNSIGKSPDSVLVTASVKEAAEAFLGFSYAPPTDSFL
Experimental: (§2) Dissection of Xenopus laevis, and the obtaining and treatment of the oocytes has been described in detail earlier (Busch et al. 1992). The oocytes were each injected with 1 ng of cRNA of NKCC, ENaC or MDEG with or without simultaneous injection of h-sgk. It was possible to carry out two-electrode voltage and current clamp experiments 2-8 days after the injection. Na^+ influx which could be inhibited by furosemide through the NKCC was measured by the ^22Na^+ uptake, which was determined with a scintillation counter, into the oocytes. Na^+ currents (ENaC) were filtered at 10 Hz and recorded with a pen recorder. The experiments were normally carried out on the second day after cRNA injection. The bath solution contained: 96 mM NaCl, 2 mM KCl, 1.8 mM CaCl2, 1 mM MgCl2 and 5 mM HEPES at pH 7.5 and the holding potential was −50 mV. The pH was adjusted by titration with HCl or NaOH in all the experiments. The flow rate of the bath liquid was set at 20 ml/min, which ensured a complete change of solution in the measurement chamber within 10-15 s. All the data are stated in the form of arithmetic means ±SEM.

NKCC = assay: 22Na+ tracer flux (furosemide-inhibitable Na+ uptake) in oocytes expressing NKCC with or without h-sgk; type: cell-based, Xenopus laevis; conditions: 22Na+ uptake
Experimental: as §2

CCCCCCCCCC(=O)O[C@@H]1[C@@H](C)[C@@]2(O)[C@@H](C=C(CO)C[C@@]3(O)C(=O)C(C)=C[C@@H]23)[C@@H]2C(C)(C)[C@]12OC(=O)CCCCCCCCC [PDD, 4-alpha-phorbol 12,13-didecanoate]
expression of h-sgk (h-sgk expression): likewise stimulate

CCCCNc1cc(C(=O)O)cc(S(N)(=O)=O)c1Oc1ccccc1 [bumetanide]
effect of TGFβ1 on biglycan expression in the presence of the NKCC inhibitor (biglycan expression): almost completely suppressed

COc1ccc2c(c[n+](C)c3c4cc5c(cc4ccc23)OCO5)c1OC [chelerythrine]
activation of ENaC (Na+ channel current) by h-sgk (h-sgk): suppresses; also recorded: completely to suppress

NS(=O)(=O)c1cc(C(=O)O)c(NCc2ccco2)cc1Cl [furosemide]
effect of TGFβ1 on biglycan expression in the presence of the NKCC inhibitor (biglycan expression): completely suppressed | increased expression of the matrix proteins in fibroblasts (biglycan expression; fibroblasts): can be suppressed | Na+ influx in NKCC-injected oocytes (NKCC; NKCC alone, without h-sgk, FIG. 3 top): not inhibited | increase in Na+ influx on coexpression of h-sgk with NKCC (NKCC; oocytes coexpressing h-sgk and NKCC, FIG. 3 below): completely suppressed

C[C@H](CCC(=O)O)C[C@H](C)C[C@H](C)C(=O)/C=C(\O)[C@H](C)C[C@H](C)C/C=C/[C@@H](C)[C@@H](O)[C@@H](C)[C@@H](O)C[C@@H]1CC[C@@](C)([C@H]2CC[C@@](C)([C@@H](C)O)O2)O1 [ionomycin]
expression of h-sgk (h-sgk expression): likewise stimulate

CN[C@@H]1C[C@H]2O[C@@](C)([C@@H]1OC)n1c3ccccc3c3c4c(c5c6ccccc6n2c5c31)C(=O)NC4 [staurosporine]
activation of ENaC (Na+ channel current) by h-sgk (h-sgk): suppresses; also recorded: completely to suppress

TGFβ1: tumor growth factor β1
expression of h-sgk (h-sgk expression): stimulated | expression of biglycan (biglycan expression): stimulated

B1: trans-dominant inhibitory kinase: h-sgk modified by mutation: lysine in position 127 replaced by arginine (K127R); suppresses the catalytic function (protein, UniProt O00141 1-431, looked up, variant K127R)
Serine/threonine-protein …: T1 sequence (O00141 1-431) with K127R
stimulating effect of h-sgk coexpression on the ENaC-mediated Na+ current (h-sgk; coexpression of the trans-dominant inhibitory kinase in oocytes, FIG. 5): can be suppressed

Reference: patent US20050064501A1, “Medicaments comprising inhibitors of the cell volume-regulated human kinase h-sgk” (PROF. DR. MED. F. LANG, priority 1999, published 2005)
